The test relates to RAW264.7 mouse macrophages. The test can be described thus: Suppression of IFNγ-induced NO production (Nitric Oxide Production and Cell Viability Assay). Type of test: cell-based. As to conditions: IFNγ-induced NO production, Griess reagent, normalized to cell viability, 2 h pre-treatment, IFNγ 24 h. Here is the method: Assay results for the suppression of IFNγ-induced NO production are shown for several of the compounds of the present invention in Table 1 below. […] Details regarding this assay are provided in the Examples section below. Nitric Oxide Production and Cell Viability Assay. RAW264.7 mouse macrophages were plated in 96-well plates at 30,000 cells/well in triplicate in RPMI1640+0.5% FBS and incubated at 37° C. with 5% CO2. On the next day, cells were pre-treated with DMSO or drug (0-200 nM dose range) for 2 hours, and then treated with recombinant mouse IFNγ (R&D Systems) for 24 hours. Nitric Oxide concentration in media was determined using the Griess reagent system (Promega). Cell viability was determined using WST-1 reagent (Roche). IC50 values were determined based on the suppression of IFNγ induced Nitric Oxide production normalized to cell viability.
Background: The Griess reaction detects nitrite, a stable product of nitric oxide.
As usually defined, the IC50 is the concentration that inhibits the measured activity by half. With `CCCc1nnc([C@]23CCC(C)(C)C[C@H]2[C@H]2C(=O)C=C4[C@@]5(C)C=C(C#N)C(=O)C(C)(C)[C@@H]5CC[C@@]4(C)[C@]2(C)CC3)o1` [TX63475], the IC50 came out at 5.7 nM. For `Cc1noc([C@]23CCC(C)(C)C[C@H]2[C@H]2C(=O)C=C4[C@@]5(C)C=C(C#N)C(=O)C(C)(C)[C@@H]5CC[C@@]4(C)[C@]2(C)CC3)n1` [TX63501] the value was 1 nM; for `CC(C)c1nnc([C@]23CCC(C)(C)C[C@H]2[C@H]2C(=O)C=C4[C@@]5(C)C=C(C#N)C(=O)C(C)(C)[C@@H]5CC[C@@]4(C)[C@]2(C)CC3)o1` [TX63476], 5.4 nM; for `Cc1nnc([C@]23CCC(C)(C)C[C@H]2[C@H]2C(=O)C=C4[C@@]5(C)C=C(C#N)C(=O)C(C)(C)[C@@H]5CC[C@@]4(C)[C@]2(C)CC3)o1` [TX63384], 2 nM. For `CC1(C)CC[C@]2(c3nnco3)CC[C@]3(C)[C@H](C(=O)C=C4[C@@]5(C)C=C(C#N)C(=O)C(C)(C)[C@@H]5CC[C@]43C)[C@@H]2C1` [TX63479] the value was 1.1 nM; for `CC1(C)CC[C@]2(c3nnc(C4CC4)o3)CC[C@]3(C)[C@H](C(=O)C=C4[C@@]5(C)C=C(C#N)C(=O)C(C)(C)[C@@H]5CC[C@]43C)[C@@H]2C1` [TX63477], 3.3 nM. Under `COCc1nnc([C@]23CCC(C)(C)C[C@H]2[C@H]2C(=O)C=C4[C@@]5(C)C=C(C#N)C(=O)C(C)(C)[C@@H]5CC[C@@]4(C)[C@]2(C)CC3)o1` [TX63478] stands 1.8 nM; under `Cc1nnc(C[C@]23CCC(C)(C)C[C@H]2[C@H]2C(=O)C=C4[C@@]5(C)C=C(C#N)C(=O)C(C)(C)[C@@H]5CC[C@@]4(C)[C@]2(C)CC3)o1` [TX63593], 1.7 nM.
